Measurements taken from patent US20110165226A1, “INFLUENZA CAP-LEADER SEQUENCE” (priority 2008, published 2011).

Tested on: Influenza virus strain A/Puerto Rico/8/34 (H1/N1)
Assay type: biochemical

Row | Substance | transcripts containing capped leaders originating from the mutant
1 | C9A10G11C12: leader length construct, CAGC within oligo U stretch, first base pairing A at position 10 (DNA CGACTCACTATAGTATTTTTCAGCTTTTTTTTTTCAAAATATTCCAAT; chemistry not fully specified; the letters are possibly those of the target site) | 9 transcripts
2 | C10A11G12C13: leader length construct, CAGC within oligo U stretch, first base pairing A at position 11 (DNA CGACTCACTATAGTATTTTTTCAGCTTTTTTTTTCAAAATATTCCAAT; chemistry not fully specified; the letters are possibly those of the target site) | 5 transcripts
